The values that follow come from US8524909B2, “Tetrahydro-pyran derivatives” (Hoffmann-La Roche Inc., priority 2010, dated 2013).

mGlyT-1b, sequence (P28571 other isoform, or with tags, fused parts or gaps isoform P28571-2): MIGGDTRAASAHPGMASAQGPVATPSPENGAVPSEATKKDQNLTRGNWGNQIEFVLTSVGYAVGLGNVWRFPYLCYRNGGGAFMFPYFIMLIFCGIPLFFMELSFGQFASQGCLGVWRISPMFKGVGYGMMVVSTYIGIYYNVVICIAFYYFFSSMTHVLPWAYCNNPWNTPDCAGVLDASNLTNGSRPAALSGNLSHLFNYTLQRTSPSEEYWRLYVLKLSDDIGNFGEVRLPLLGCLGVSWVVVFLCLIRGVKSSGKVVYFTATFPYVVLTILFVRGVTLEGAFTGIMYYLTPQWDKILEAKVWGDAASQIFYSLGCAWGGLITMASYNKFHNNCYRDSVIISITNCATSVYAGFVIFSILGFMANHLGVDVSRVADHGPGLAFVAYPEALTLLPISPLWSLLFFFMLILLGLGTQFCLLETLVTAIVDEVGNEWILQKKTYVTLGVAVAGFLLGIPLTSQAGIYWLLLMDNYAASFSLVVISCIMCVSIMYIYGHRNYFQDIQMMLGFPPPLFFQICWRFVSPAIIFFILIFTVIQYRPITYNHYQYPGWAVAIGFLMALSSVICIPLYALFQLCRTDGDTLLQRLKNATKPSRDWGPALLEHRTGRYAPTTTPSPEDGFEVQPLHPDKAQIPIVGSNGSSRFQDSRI

For the experiment, the target named is mGlyT-1b (Mus musculus (Mouse), UniProt P28571). The experiment is described as follows: Glycine Uptake Inhibition Assay (mGlyT-1b). To be noted: [3H]-glycine uptake in Flp-in-CHO cells stably transfected with mGlyT1b cDNA; 20 min preincubation at 22° C. Format: cell-based. The method, then:
DMEM complete medium: Nutrient mixture F-12 (Gibco Life-technologies), fetal bovine serum (FBS) 5%, (Gibco life technologies), Penicillin/Streptomycin 1% (Gibco life technologies), Hygromycin 0.6 mg/ml (Gibco life technologies), Glutamine 1 mM Gibco life technologies)
Uptake buffer (UB): 150 mM NaCl, 10 mM Hepes-Tris, pH 7.4, 1 mM CaCl2, 2.5 mM KCl, 2.5 mM MgSO4, 10 mM (+) D-glucose.
Flp-in™-CHO (Invitrogen Cat no R758-07) cells stably transfected with mGlyT1b cDNA.
Glycine Uptake Inhibition Assay (mGlyT-1b)
On day 1 mammalian cells, (Flp-in™-CHO), transfected with mGlyT-1b cDNA, were plated at the density of 40,000 cells/well in complete F-12 medium, without hygromycin in 96-well culture plates. On day 2, the medium was aspirated and the cells were washed twice with uptake buffer (UB). The cells were then incubated for 20 min at 22° C. with either (i) no potential competitor, (ii) 10 mM non-radioactive glycine, (iii) a concentration of a potential inhibitor. A range of concentrations of the potential inhibitor was used to generate data for calculating the concentration of inhibitor resulting in 50% of the effect (e.g. IC50, the concentration of the competitor inhibiting glycine uptake of 50%). A solution was then immediately added containing [^3H]-glycine 60 nM (11-16 Ci/mmol) and 25 μM non-radioactive glycine. The plates were incubated with gentle shaking and the reaction was stopped by aspiration of the mixture and washing (three times) with ice-cold UB. The cells were lysed with scintillation liquid, shaken 3 hours and the radioactivity in the cells was counted using a scintillation counter.
As a reminder, the IC50 is the midpoint of a concentration-inhibition curve. A lower IC50 goes with greater potency in that assay. `COc1cc(C(F)(F)F)cc(SC)c1C(=O)N[C@@H]1COCC[C@H]1NC(C)C1CC1` (mixture of isomers) [Example 31, N-[(3SR,4RS)-4-(1-Cyclopropyl-ethylamino)-tetrahydro-pyran-3-yl]-2-methoxy-6-methylsulfanyl-4-trifluoro-methyl-benzamide] gave an IC50 of 276 nM.

Take `O=C(N[C@@H]1COCC[C@H]1NC1CCC1)c1ccc(C(F)(F)F)cc1C1CC1` (racemic) [Example 32, N-((3SR,4RS)-4-Cyclobutylamino-tetrahydro-pyran-3-yl)-2-cyclo-propyl-4-trifluoromethyl-benzamide]: the IC50 came out at 119 nM. `COc1cc(C(F)(F)F)cc(SC)c1C(=O)N[C@@H]1COCC[C@H]1NC1CCC(O)CC1` (mixture of isomers) [Example 33, N-[(3SR,4RS)-4-(4-Hydroxy-cyclohexylamino)-tetrahydro-pyran-3-yl]-2-methoxy-6-methylsulfanyl-4-trifluoromethyl-benzamide] had an IC50 of 751 nM.

With `O=C(N[C@@H]1COCC[C@H]1N1CCC(O)CC1)c1ccc(C(F)(F)F)cc1C1CC1` (racemic) [Example 36], inhibition was half-maximal at 274 nM (IC50). Regarding `COc1cc(C(F)(F)F)cc(SC)c1C(=O)N[C@@H]1CCOC[C@@H]1N1CCCC1` (relative stereo) [Example 63, cis-2-Methoxy-6-methylsulfanyl-N-(3-pyrrolidin-1-yl-tetrahydro-pyran-4-yl)-4-trifluoromethyl-benzamide], half-maximal inhibition (IC50) required 189 nM. For `COc1cc(C(F)(F)F)cc(SC)c1C(=O)N[C@H]1COCC[C@@H]1N1CCCC1` (single isomer, unassigned) [Example 5, (+)-2-Methoxy-6-methylsulfanyl-N-(4-pyrrolidin-1-yl-tetrahydro-pyran-3-yl)-4-trifluoromethyl-benzamide], half-maximal inhibition (IC50) required 118 nM. As for `COc1cc(C(F)(F)F)cc(SC)c1C(=O)N[C@H]1COCC[C@@H]1N1CCCC1` (single isomer, unassigned) [Example 6, (−)-2-Methoxy-6-methylsulfanyl-N-(4-pyrrolidin-1-yl-tetrahydro-pyran-3-yl)-4-trifluoromethyl-benzamide], the figure is 28.4 nM; as for `O=C(N[C@H]1COCC[C@@H]1NC1CCCC1)c1ccc(C(F)(F)F)cc1C1CC1` (stereo in doubt) [Example 43, (+)-N-(trans-4-Cyclopentylamino-tetrahydro-pyran-3-yl)-2-cyclopropyl-4-trifluoromethyl-benzamide], 78.8 nM. In the case of `COc1cc(C(F)(F)F)cc(SC)c1C(=O)N[C@@H]1COCC[C@H]1N1C[C@H]2C[C@H]2C1` [Example 34, N-[(3S,4R)-4-(3-Aza-bicyclo[3.1.0]hex-3-yl)-tetra-hydro-pyran-3-yl]-2-methoxy-6-methylsulfanyl-4-trifluoromethyl-benzamide], inhibition was half-maximal at 110 nM (IC50).

Molecule `O=C(N[C@@H]1COCC[C@H]1N1C[C@H]2C[C@H]2C1)c1ccc(C(F)(F)F)cc1C1CC1` [Example 35, N-[(3S,4R)-4-(3-Aza-bicyclo[3.1.0]hex-3-yl)-tetra-hydro-pyran-3-yl]-2-cyclopropyl-4-trifluoromethyl-benzamide] had an IC50 of 26.5 nM.

`O=C(N[C@@H]1COCC[C@H]1N1CCCC1)c1ccc(C(F)(F)F)cc1C1CC1` [Example 37, (+)-2-Cyclopropyl-N-(4-pyrrolidin-1-yl-tetrahydro-pyran-3-yl)-4-trifluoromethyl-benzamide]: half-maximal inhibition (IC50) was put at 83.4 nM.

Molecule `O=C(N[C@H]1COCC[C@@H]1N1CCCC1)c1ccc(C(F)(F)F)cc1C1CC1` [Example 38, (−)-2-Cyclopropyl-N-(4-pyrrolidin-1-yl-tetrahydro-pyran-3-yl)-4-trifluoromethyl-benzamide] had an IC50 of 83.4 nM. `Cc1cc(C(F)(F)F)cc(C(F)(F)F)c1C(=O)N[C@H]1COCC[C@@H]1N1CCCC1` [Example 39, (+)-2-Methyl-N-trans-(4-pyrrolidin-1-yl-tetrahydro-pyran-3-yl)-4,6-bis-trifluoro-methyl-benzamide] came in with an IC50 of 43.9 nM. In turn, `Cc1cc(C(F)(F)F)cc(C(F)(F)F)c1C(=O)N[C@@H]1COCC[C@H]1N1CCCC1` [Example 40, (−)-2-Methyl-N-trans-(4-pyrrolidin-1-yl-tetrahydro-pyran-3-yl)-4,6-bis-trifluoromethyl-benzamide] displayed an IC50 of 95.5 nM.

Molecule `CSc1cc(C(F)(F)F)cc(C(F)(F)F)c1C(=O)N[C@H]1COCC[C@@H]1N1CCCC1` [Example 41, (+)-2-Methylsulfanyl-N-trans-(4-pyrrolidin-1-yl-tetrahydro-pyran-3-yl)-4,6-bis-trifluoromethyl-benzamide] came in with an IC50 of 44.7 nM. As for `CSc1cc(C(F)(F)F)cc(C(F)(F)F)c1C(=O)N[C@@H]1COCC[C@H]1N1CCCC1` [Example 42, (−)-2-Methylsulfanyl-N-trans-(4-pyrrolidin-1-yl-tetrahydro-pyran-3-yl)-4,6-bis-trifluoromethyl-benzamide], the figure is 27 nM. Take `O=C(N[C@@H]1COCC[C@H]1NC1CCCC1)c1ccc(C(F)(F)F)cc1C1CC1` [Example 44, (−)-N-(trans-4-Cyclopentylamino-tetrahydro-pyran-3-yl)-2-cyclopropyl-4-trifluoromethyl-benzamide]: it took 299 nM to reach half-maximal inhibition (IC50).

`COc1cc(C(F)(F)F)cc(SC)c1C(=O)N[C@H]1COCC[C@@H]1NC1CCCC1` [Example 45, (+)-N-(4-Cyclopentylamino-tetrahydro-pyran-3-yl)-2-methoxy-6-methylsulfanyl-4-trifluoromethyl-benzamide] displayed an IC50 of 111 nM. Consider `COc1cc(C(F)(F)F)cc(SC)c1C(=O)N[C@@H]1COCC[C@H]1NC1CCCC1` [Example 46, (−)-N-(4-Cyclopentylamino-tetrahydro-pyran-3-yl)-2-methoxy-6-methylsulfanyl-4-trifluoromethyl-benzamide], for which the IC50 was 158 nM.

Molecule `O=C(N[C@H]1COCC[C@@H]1N1CCCC1)c1c(C2CC2)cc(C(F)(F)F)cc1C(F)(F)F` [Example 47, (+)-2-Cyclopropyl-N-(4-pyrrolidin-1-yl-tetrahydro-pyran-3-yl)-4,6-bis-trifluoromethyl-benzamide] registered an IC50 of 16 nM. As to `O=C(N[C@@H]1COCC[C@H]1N1CCCC1)c1c(C2CC2)cc(C(F)(F)F)cc1C(F)(F)F` [Example 48, (−)-2-Cyclopropyl-N-(4-pyrrolidin-1-yl-tetrahydro-pyran-3-yl)-4,6-bis-trifluoromethyl-benzamide], the IC50 came to 20 nM. As for `O=C(N[C@@H]1COCC[C@H]1NC1CCCCC1)c1ccc(C(F)(F)F)cc1C1CC1` [Example 49], the figure is 340 nM; as for `O=C(N[C@H]1COCC[C@@H]1NC1CCCCC1)c1ccc(C(F)(F)F)cc1C1CC1` [Example 50], 57 nM; as for `Cc1cc(C(F)(F)F)cc(C)c1C(=O)N[C@H]1COCC[C@@H]1N1CCCC1` [Example 51], 25.3 nM.

`Cc1cc(C(F)(F)F)cc(C)c1C(=O)N[C@@H]1COCC[C@H]1N1CCCC1` [Example 52] displayed an IC50 of 34.1 nM.

Molecule `COc1cc(C(F)(F)F)cc(C)c1C(=O)N[C@H]1COCC[C@@H]1N1CCCC1` [Example 53, (+)-2-Methoxy-6-methyl-N-(4-pyrrolidin-1-yl-tetrahydro-pyran-3-yl)-4-trifluoromethyl-benzamide] gave an IC50 of 78.2 nM. As for `COc1cc(C(F)(F)F)cc(C)c1C(=O)N[C@@H]1COCC[C@H]1N1CCCC1` [Example 54], the figure is 33.8 nM.
